Test results: patent US12162890B2 (Novartis AG, priority 2015, dated 2024)

Target: HEK293 cells with stable expression of the GRIN1 gene and tetracycline-inducible expression of the GRIN2B gene (NMDA receptor, NR2B) (Homo sapiens, UniProt Q13224)
Test: Fluo-8 Ca2+ flux assay: reversal of Ro 25-6981-mediated suppression of the Ca2+ response to co-agonist (glutamate/glycine); also: test concentration or dose not given here
Format: cell-based
Conditions: reversal of the Ro 25-6981 suppression of the Ca2+ response to co-agonist (glutamate/glycine)

Sequence of HEK293 cells with stable expression of the GRIN1 gene and tetracycline-inducible expression of the GRIN2B gene (NMDA receptor, NR2B) (Q13224 27-1484, other chains not shown): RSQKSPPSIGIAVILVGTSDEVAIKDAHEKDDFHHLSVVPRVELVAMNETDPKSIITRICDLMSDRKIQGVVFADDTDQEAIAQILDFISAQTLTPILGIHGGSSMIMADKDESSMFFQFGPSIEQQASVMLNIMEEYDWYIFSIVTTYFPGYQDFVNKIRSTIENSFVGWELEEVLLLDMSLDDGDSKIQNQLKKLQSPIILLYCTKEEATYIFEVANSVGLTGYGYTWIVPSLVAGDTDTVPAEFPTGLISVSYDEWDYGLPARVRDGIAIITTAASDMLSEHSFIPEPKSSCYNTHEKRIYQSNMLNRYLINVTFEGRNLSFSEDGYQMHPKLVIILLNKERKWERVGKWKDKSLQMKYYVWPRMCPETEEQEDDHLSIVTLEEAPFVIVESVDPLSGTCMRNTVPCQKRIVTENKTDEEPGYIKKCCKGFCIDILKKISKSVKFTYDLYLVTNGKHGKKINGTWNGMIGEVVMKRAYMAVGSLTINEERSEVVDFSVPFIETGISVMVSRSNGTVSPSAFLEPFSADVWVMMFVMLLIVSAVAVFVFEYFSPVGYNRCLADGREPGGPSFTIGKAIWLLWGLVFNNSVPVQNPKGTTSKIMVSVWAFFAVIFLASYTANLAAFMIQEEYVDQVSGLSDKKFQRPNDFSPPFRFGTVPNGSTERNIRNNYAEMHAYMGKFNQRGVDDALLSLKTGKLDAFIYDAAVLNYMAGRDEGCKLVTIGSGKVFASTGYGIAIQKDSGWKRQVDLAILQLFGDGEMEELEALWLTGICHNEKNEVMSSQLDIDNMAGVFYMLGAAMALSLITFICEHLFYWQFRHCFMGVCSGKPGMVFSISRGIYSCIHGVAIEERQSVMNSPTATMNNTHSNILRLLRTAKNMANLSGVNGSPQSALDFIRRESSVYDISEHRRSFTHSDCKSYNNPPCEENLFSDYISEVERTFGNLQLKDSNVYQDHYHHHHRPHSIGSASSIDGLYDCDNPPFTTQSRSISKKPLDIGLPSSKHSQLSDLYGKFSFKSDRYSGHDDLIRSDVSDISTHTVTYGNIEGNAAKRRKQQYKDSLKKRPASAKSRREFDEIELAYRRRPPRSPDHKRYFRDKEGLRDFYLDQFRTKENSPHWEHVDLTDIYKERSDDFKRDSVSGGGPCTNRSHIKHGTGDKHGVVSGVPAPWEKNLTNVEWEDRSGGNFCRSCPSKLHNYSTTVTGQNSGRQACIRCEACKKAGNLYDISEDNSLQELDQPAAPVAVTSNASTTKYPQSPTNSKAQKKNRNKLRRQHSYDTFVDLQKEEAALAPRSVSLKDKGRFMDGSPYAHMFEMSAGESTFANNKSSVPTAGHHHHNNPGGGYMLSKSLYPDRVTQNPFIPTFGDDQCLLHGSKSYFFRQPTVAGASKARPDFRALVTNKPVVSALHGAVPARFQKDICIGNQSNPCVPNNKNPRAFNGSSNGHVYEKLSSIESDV

| Response Recovered (%) | SMILES |
| --- | --- |
| 49 | O=C(Cn1ccn2ccc(-c3ccc(F)c(Cl)c3)c2c1=O)N1CCC(F)C1 (stereo not drawn) [Example 393, 8-(3-chloro-4-fluorophenyl)-2-(2-(3-fluoropyrrolidin-1-yl)-2-oxoethyl)pyrrolo[1,2-a]pyrazin-1(2H)-one] |
| 71 | O=C(Cn1ccc2c(c(-c3ccc(F)c(C(F)(F)F)c3)cn2CC(F)F)c1=O)N1CCC(F)C1 (stereo not drawn) [Example 279, 1-(2,2-difluoroethyl)-3-(4-fluoro-3-(trifluoromethyl)phenyl)-5-(2-(3-fluoropyrrolidin-1-yl)-2-oxoethyl)-1H-pyrrolo[3,2-c]pyridin-4(5H)-one] |
| 130 | CC1(F)CN(C(=O)Cn2ccc3c(c(-c4ccc(Cl)c(Cl)c4)cn3C3CC3)c2=O)C1 [Example 288, 1-cyclopropyl-3-(3,4-dichlorophenyl)-5-(2-(3-fluoro-3-methylazetidin-1-yl)-2-oxoethyl)-1H-pyrrolo[3,2-c]pyridin-4(5H)one] |
| 14 | CN(C)CCn1cc(-c2ccc(F)c(Cl)c2)c2c(=O)n(CC(=O)N3CCC(F)C3)ccc21 (stereo not drawn) [Example 245, 3-(3-chloro-4-fluorophenyl)-1-(2-(dimethylamino)ethyl)-5-(2-(3-fluoropyrrolidin-1-yl)-2-oxoethyl)-1H-pyrrolo[3,2-c]pyridin-4(5H)-one] |
| 35 | Cc1cn(CC(=O)N2CCC(F)C2)c(=O)n2c(-c3ccc(F)c(C(F)(F)F)c3)cnc12 (stereo not drawn) [Example 454, 3-(4-fluoro-3-(trifluoromethyl)phenyl)-6-(2-(3-fluoropyrrolidin-1-yl)-2-oxoethyl)-8-methylimidazo[1,2-c]pyrimidin-5(6H)-one] |
| 15 | O=C(Cn1cnc2csc(-c3ccc(Cl)c(F)c3)c2c1=O)N1CCCC1 [Example 367, 5-(4-chloro-3-fluorophenyl)-3-(2-oxo-2-(pyrrolidin-1-yl)ethyl)thieno[3,4-d]pyrimidin-4(3H)-one] |
| 3 | O=C(Cn1ccc2ccc(-c3ccc(Cl)c(C(F)(F)F)c3)cc2c1=O)N1CC(F)(F)C1 [Example 312, 7-(4-chloro-3-(trifluoromethyl)phenyl)-2-(2-(3,3-difluoroazetidin-1-yl)-2-oxoethyl)isoquinolin-1(2H)-one] |
| 7 | O=C(Cn1ncc2scc(-c3ccc(F)c(Cl)c3)c2c1=O)N1CCCC1 [Example 337, 3-(3-chloro-4-fluorophenyl)-5-(2-oxo-2-(pyrrolidin-1-yl)ethyl)thieno[2,3-d]pyridazin-4(5H)-one] |
| 78 | O=C(Cn1ccc2cccc(-c3ccc(Cl)c(Cl)c3)c2c1=O)N1CCCC1 [Example 308] |
| 6 | O=C(Cn1ccc2ccc(-c3ccc(Cl)c(C(F)(F)F)c3)cc2c1=O)N1CCC(F)C1 (stereo not drawn) [Example 311, 7-(4-chloro-3-(trifluoromethyl)phenyl)-2-(2-(3-fluoropyrrolidin-1-yl)-2-oxoethyl)isoquinolin-1(2H)-one] |
| 1.5 | O=C(Cn1ccn2ccc(-c3ccc(F)c(Cl)c3)c2c1=O)N1CC(F)(c2ccccc2)C1 [Example 399, 8-(3-chloro-4-fluorophenyl)-2-(2-(3-fluoro-3-phenylazetidin-1-yl)-2-oxoethyl)pyrrolo[1,2-a]pyrazin-1(2H)-one] |
| 3 | O=C(Cn1ncc2scc(-c3ccc(Cl)c(F)c3)c2c1=O)N1CC(F)(F)C1 [Example 340, 3-(4-chloro-3-fluorophenyl)-5-(2-(3,3-difluoroazetidin-1-yl)-2-oxoethyl)thieno[2,3-d]pyridazin-4(5H)-one] |
| 1 | COC1CN(C(=O)Cn2cnc3csc(-c4ccc(Cl)cc4)c3c2=O)C1 [Example 351, 5-(4-chlorophenyl)-3-(2-(3-methoxyazetidin-1-yl)-2-oxoethyl)thieno[3,4-d]pyrimidin-4(3H)-one] |

Second part, the compound before the results:

| SMILES | Response Recovered (%) |
| --- | --- |
| O=C(Cn1ccc2[nH]cc(-c3ccc(Cl)c(C(F)(F)F)c3)c2c1=O)N1CC(F)(F)C1 [Example 212, 3-(4-chloro-3-(trifluoromethyl)phenyl)-5-(2-(3,3-difluoroazetidin-1-yl)-2-oxoethyl)-1H-pyrrolo[3,2-c]pyridin-4(5H)-one] | 107 |
| Cn1cc(-c2ccc(Cl)c(C(F)(F)F)c2)c2c(=O)n(CC(=O)N3CCCC3)cnc21 [Example 158, 5-(4-chloro-3-(trifluoromethyl)phenyl)-7-methyl-3-(2-oxo-2-(pyrrolidin-1-yl)ethyl)-3H-pyrrolo[2,3-d]pyrimidin-4(7H)-one] | 72 |
| O=C(Cn1cnc2[nH]cc(-c3ccc(Cl)c(F)c3)c2c1=O)N1CC(F)(F)C1 [Example 167, 5-(4-chloro-3-fluorophenyl)-3-(2-(3,3-difluoroazetidin-1-yl)-2-oxoethyl)-3H-pyrrolo[2,3-d]pyrimidin-4(7H)-one] | 35 |
| O=C(Cn1cc(CN2CCCC2)c2scc(-c3ccc(F)c(Cl)c3)c2c1=O)N1CCC(F)C1 (stereo not drawn) [Example 119, 3-(3-chloro-4-fluorophenyl)-5-(2-(3-fluoropyrrolidin-1-yl)-2-oxoethyl)-7-(pyrrolidin-1-ylmethyl)thieno[3,2-c]pyridin-4(5H)-one] | 75 |
| C/C(=N/O)c1cn(CC(=O)N2CCC(F)C2)c(=O)c2c(-c3ccc(F)c(C(F)(F)F)c3)csc12 (stereo not drawn) [Example 135, (Z)-3-(4-fluoro-3-(trifluoromethyl)phenyl)-5-(2-(3-fluoropyrrolidin-1-yl)-2-oxoethyl)-7-(1-(hydroxyimino)ethyl)thieno[3,2-c]pyridin-4(5H)-one] | 11 |
| O=C(Cn1ccc2scc(-c3cnc(F)c(F)c3)c2c1=O)N1CC(F)(CF)C1 [Example 144, 3-(5,6-difluoropyridin-3-yl)-5-(2-(3-fluoro-3-(fluoromethyl)azetidin-1-yl)-2-oxoethyl)thieno[3,2-c]pyridin-4(5H)-one] | 9.8 |
| O=C(Cn1ccc2scc(-c3ccc(F)c(C(F)(F)F)c3)c2c1=O)N1CC(F)(c2ccccc2)C1 [Example 54, 3-(4-fluoro-3-(trifluoromethyl)phen-yl)-5-(2-(3-fluoro-3-phenylazetidin-1-yl)-2-oxoethyl)thieno[3,2-c]pyridin-4(5H)-one] | 17 |
| Cc1cc(-c2csc3ccn(CC(=O)N4CC(C)(F)C4)c(=O)c23)ccc1F [Example 23, 5-(2-(3-fluoro-3-methylazetidin-1-yl)-2-oxoethyl)-3-(4-fluoro-3-methylphenyl)thieno[3,2-c]pyridin-4(5H)-one] | 100 |
| CC1(F)CN(C(=O)Cn2ccc3scc(-c4cncc(Cl)n4)c3c2=O)C1 [Example 145, 3-(6-chloropyrazin-2-yl)-5-(2-(3-fluoro-3-methylazetidin-1-yl)-2-oxoethyl)thieno[3,2-c]pyridin-4(5H)-one] | 3 |
| O=C(Cn1ccc2[nH]cc(-c3ccc(F)c(Cl)c3)c2c1=O)N1CCCC1 [Example 208, 3-(3-chloro-4-fluorophenyl)-5-(2-oxo-2-(pyrrolidin-1-yl)ethyl)-1H-pyrrolo[3,2-c]pyridin-4(5H)-one] | 60 |
| O=C(Cn1cnc2[nH]cc(-c3ccc(Cl)cc3)c2c1=O)N1CCCC1 [Example 150, 5-(4-chlorophenyl)-3-(2-oxo-2-(pyrrolidin-1-yl)ethyl)-3H-pyrrolo[2,3-d]pyrimidin-4(7H)-one] | 31 |
| O=C(Cn1ccc2[nH]cc(-c3ccc(Cl)c(C(F)(F)F)c3)c2c1=O)N1CCCC1 [Example 198, 3-(4-chloro-3-(trifluoromethyl)phenyl)-5-(2-oxo-2-(pyrrolidin-1-yl)ethyl)-1H-pyrrolo[3,2-c]pyridin-4(5H)-one] | 104 |
| O=C(Cn1cc(CO)c2scc(-c3ccc(F)c(C(F)(F)F)c3)c2c1=O)N1CCC(F)C1 (stereo not drawn) [Example 111, 3-(4-fluoro-3-(trifluoromethyl)phenyl)-5-(2-(3-fluoropyrrolidin-1-yl)-2-oxoethyl)-7-(hydroxymethyl)thieno[3,2-c]pyridin-4(5H)-one] | 97 |
| O=C(Cn1cnc2[nH]cc(-c3ccc(Cl)c(C(F)(F)F)c3)c2c1=O)N1C[C@@H](F)[C@@H](F)C1 [Example 181] | 69 |
| O=C(Cn1ccc2scc(-c3ccc(F)c(Cl)c3)c2c1=O)N1CC(F)(F)C1 [Example 8, 3-(3-Chloro-4-fluorophenyl)-5-[2-(3,3-difluoro-azetidin-1-yl)-2-oxo-ethyl]-5H-thieno[3,2-c]pyridin-4-one] | 66 |
| CC1(F)CN(C(=O)Cn2ccc3scc(-c4cnc(Cl)c(Cl)c4)c3c2=O)C1 [Example 76, 3-(5,6-dichloropyridin-3-yl)-5-(2-(3-fluoro-3-methylazetidin-1-yl)-2-oxoethyl)thieno[3,2-c]pyridin-4(5H)-one] | 77 |
| O=C(Cn1cnc2[nH]cc(-c3ccc(C(F)(F)F)c(Cl)c3)c2c1=O)N1CCC(F)C1 (stereo not drawn) [Example 176, 5-(3-chloro-4-(trifluoromethyl)phenyl)-3-(2-(3-fluoropyrrolidin-1-yl)-2-oxoethyl)-3H-pyrrolo[2,3-d]pyrimidin-4(7H)-one] | 63 |
| O=C(Cn1cnc2c(c(-c3ccc(Cl)c(C(F)(F)F)c3)cn2C2CC2)c1=O)N1CCCC1 [Example 190, 5-(4-chloro-3-(trifluoromethyl)phenyl)-7-cyclopropyl-3-(2-oxo-2-(pyrrolidin-1-yl)ethyl)-3H-pyrrolo[2,3-d]pyrimidin-4(7H)-one] | 71 |
| COCc1cn(CC(=O)N2CCC(F)C2)c(=O)c2c(-c3ccc(F)c(C(F)(F)F)c3)csc12 (stereo not drawn) [Example 126, 3-(4-fluoro-3-(trifluoromethyl)phenyl)-5-(2-(3-fluoropyrrolidin-1-yl)-2-oxoethyl)-7-(methoxymethyl)thieno[3,2-c]pyridin-4(5H)-one] | 46 |
| O=C(Cn1ccc2scc(-c3ccc(F)c(Cl)c3)c2c1=O)N1CC2(COC2)C1 [Example 67, 3-(3-chloro-4-fluroophenyl)-5-(2-oxo-2-(2-oxa-6-azaspiro[3.3]heptan-6-yl)ethyl)thieno[3,2-c]pyridin-4(5H)-one] | 4.4 |
